Data on one compound can be found in patent publication US20250381165A1, “Method of Use for Benzofuran Compounds” (Tampa Bay Research Institute, Inc., priority 2024, published 2025).

For test [1], the target named is T1, MHCI/SIINFEKL complex on DC2.4 (Mus musculus, UniProt P01901).
T1 construct: DC2.4 are a C57Bl/6 lineage murine cell line and as such they express MHC class I H-2Kb and H-2Db; endogenous in cells; host or cells: DC2.4 (murine dendritic cell line, from Dr. Kenneth Rock)
T1 sequence (P01901 22-369): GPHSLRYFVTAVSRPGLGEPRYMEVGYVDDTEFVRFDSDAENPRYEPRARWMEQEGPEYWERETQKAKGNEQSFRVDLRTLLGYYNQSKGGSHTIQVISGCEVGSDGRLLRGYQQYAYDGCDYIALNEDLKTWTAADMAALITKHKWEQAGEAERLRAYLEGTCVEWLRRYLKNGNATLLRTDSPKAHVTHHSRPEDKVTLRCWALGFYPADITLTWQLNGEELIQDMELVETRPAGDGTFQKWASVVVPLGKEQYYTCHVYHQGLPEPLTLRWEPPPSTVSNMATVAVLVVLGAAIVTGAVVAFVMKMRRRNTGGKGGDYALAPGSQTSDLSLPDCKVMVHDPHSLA
T1 sequence (P01887 21-119 partner): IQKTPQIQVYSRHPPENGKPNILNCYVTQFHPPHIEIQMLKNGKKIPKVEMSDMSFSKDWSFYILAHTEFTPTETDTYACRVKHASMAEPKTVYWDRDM
Kind of test: Displacement of SIINFEKL from DC2.4 after peptide pulse. In kind it is cell-based, murine. To be noted: 25 μg/mL BzFβ after 1 h pulse 30 nM SIINFEKL; p<0.0001.

Test [2] concerns splenocytes (B3Z activation). Kind of test: In vivo SIINFEKL loading, splenocytes used ex vivo to activate B3Z. Further details: species or system C57BL/6NCrl mice. The procedure: Six- to ten-week-old male and female C57BL/6NCrl mice (Charles River Laboratories, Wilmington MA; cat. no. 027) were used for all animal studies. The mice were maintained in accord with the NIH Guide for the Care and Use of Laboratory Animals. Experimental procedures were performed in accord with research protocols approved by the Tampa Bay Research Institute's Institutional Animal Care and Use Committee. Mice were maintained in an INOVIVE individually ventilated cage system with 3 mice per cage containing 100% virgin wood pulp bedding (Harlan Teklad™, Harlan Sprague Dawley Inc., Indianapolis, IA; cat. n.o 7099). Water and food (Harlan Teklad™; cat. no. 8640) were available ad libitum. The mice were maintained on a cycle of 12 h of light and 12 h of dark in an environment with a temperature of 74-76° […]. and 40-60% humidity. All cages underwent 40 air changes hourly in the negative pressure mode, in accordance with manufacturer's recommendations. Both the intake and exhaust air from the system were filtered through HEPA filters to maintain a clean environment. Stock solutions of BzFβ were solubilized in alkaline water (pH 10) and then sterile filtered through 0.22 µm syringe filters. BzFβ used for iv or im injections was diluted in 0.9% saline (normal saline). The stock solutions of the SIINFEKL peptide were prepared in 1× calcium/magnesium free Dulbecco's phosphate-buffered saline (DPBS; ThermoFisher Scientific, cat. no. 14190144).
Since the oral route of drug delivery is preferred, various doses of BzFβ (1, 2, 4 mg) were administered by oral gavage, immediately following an iv injection of 50 μg SIINFEKL peptide. One-hour post-treatment the blood and spleens from each mouse was collected. […] The cell count was determined using the MUSE cell viability kit (MCH600103) and MUSE Cell Analyzer (Luminex Corp, Austin TX).
One hour later the splenocytes were isolated and immediately tested for peptide loading or used to activate B3Z cells. […] The colorimetric response was allowed to develop for 15-240 min and the OD 560 nm was measured at various time points using a Synergy HTX plate reader. […]

As to `O=C(O)/C=C/c1ccc2occc2c1` [BzFβ, (2E)-3-(1-benzofuran-5-yl)prop-2-enoic acid], the “MHCI/SIINFEKL complex staining versus untreated cells” value in test [1] is given as “significantly reduced”. Besides, the “ability of splenocytes to activate B3Z, three routes” value in test [2] (gavage 1 mg, iv 50 μg or im 100 μg after iv 50 μg SIINFEKL, 1 h) is “successful at enhancing the ability of the splenocytes to activate B3Z”. In addition, the “B3Z response, comparison of routes” value in test [2] (iv 50 μg BzFβ) is listed as “greatest response”. Further, the “B3Z response to splenocytes versus peptide alone” value in test [2] (oral gavage 1, 2, 4 mg after iv 50 μg SIINFEKL, 1 h) is reported as “significantly greater response”.
